Assay results from ChEMBL document CHEMBL1201862, “PubChem BioAssay data set” (2004).
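Tested at 5 concentrations; 48 h exposure; 96-well plates; endpoints linearly interpolated, else capped at highest concentration. GI50 is the concentration that inhibits growth by half.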 The source made the active and inactive calls. Rule as the data show it: active = GI50 up to about 1.1 µM and inactive = higher.

How the values were obtained:
Test in all cases: NCI-60 cell line screen, 48 h
[1] = tested on: SF-268
[2] = tested on: SNB-19
[3] = tested on: SF-539
[4] = tested on: OVCAR-3
[5] = tested on: OVCAR-4
[6] = tested on: MCF7
[7] = tested on: Malme-3M
[8] = tested on: HCT-15
[9] = tested on: SNB-75
[10] = tested on: K562
[11] = tested on: SK-MEL-2
[12] = tested on: Hs-578T
[13] = tested on: HOP-62
[14] = tested on: NCI/ADR-RES
[15] = tested on: HOP-92
[16] = tested on: SW-620
[17] = tested on: IGROV-1
[18] = tested on: LOX IMVI
[19] = tested on: UO-31
[20] = tested on: SK-MEL-28
[21] = tested on: U-251
[22] = tested on: NCI-H226
[23] = tested on: M14
[24] = tested on: MDA-MB-435
[25] = tested on: ACHN
[26] = tested on: CAKI-1
[27] = tested on: OVCAR-5
[28] = tested on: NCI-H460
[29] = tested on: BT-549
[30] = tested on: KM12
[31] = tested on: COLO 205
[32] = tested on: UACC-257
[33] = tested on: HCT-116
[34] = tested on: MOLT-4
[35] = tested on: OVCAR-8
[36] = tested on: 786-0
[37] = tested on: CCRF-CEM
[38] = tested on: TK-10
[39] = tested on: RPMI-8226
[40] = tested on: PC-3
[41] = tested on: T47D
[42] = tested on: EKVX
[43] = tested on: DU-145
[44] = tested on: HT-29
[45] = tested on: SK-MEL-5
[46] = tested on: A549
[47] = tested on: SN12C
[48] = tested on: MDA-N
[49] = tested on: SK-OV-3
[50] = tested on: UACC-62
[51] = tested on: NCI-H522
[52] = tested on: NCI-H23
[53] = tested on: MDA-MB-231
[54] = tested on: SF-295
[55] = tested on: HL-60
[56] = tested on: RXF 393
[57] = tested on: A498

For `O=C([O-])C[n+]1ccccc1.c1ccncc1`, the GI50 [1] was > 100 µM (inactive), the GI50 [2] was > 100 µM (inactive) and the GI50 [3] was > 100 µM (inactive). For the same compound, the GI50 [4] was > 100 µM (inactive), the GI50 [5] was > 100 µM (inactive) and the GI50 [6] was > 100 µM (inactive). The GI50 [7] was > 100 µM (inactive), the GI50 [8] was > 100 µM and the GI50 [9] was > 100 µM (inactive). The GI50 [10] was > 100 µM (inactive), the GI50 [11] was > 100 µM (inactive) and the GI50 [12] was > 100 µM (inactive). For the same compound, the GI50 [13] was > 100 µM (inactive), the GI50 [14] was > 100 µM (inactive) and the GI50 [15] was > 100 µM (inactive). For the same compound, the GI50 [16] was > 100 µM (inactive), the GI50 [17] was > 100 µM (inactive) and the GI50 [18] was > 100 µM (inactive). The GI50 [19] was > 100 µM (inactive), the GI50 [20] was > 100 µM (inactive) and the GI50 [21] was > 100 µM (inactive). The GI50 [22] was > 100 µM (inactive), the GI50 [23] was > 100 µM (inactive) and the GI50 [24] was > 100 µM (inactive). For the same compound, the GI50 [25] was > 100 µM (inactive), the GI50 [26] was > 100 µM (inactive) and the GI50 [27] was > 100 µM (inactive). For the same compound, the GI50 [28] was > 100 µM (inactive), the GI50 [29] was > 100 µM (inactive) and the GI50 [30] was > 100 µM (inactive). The GI50 [31] was > 100 µM (inactive), the GI50 [32] was > 100 µM (inactive) and the GI50 [33] was > 100 µM (inactive). The GI50 [34] was 33.1 µM (inactive), the GI50 [35] was > 100 µM (inactive) and the GI50 [36] was > 100 µM (inactive). For the same compound, the GI50 [37] was > 100 µM (inactive), the GI50 [38] was > 100 µM (inactive) and the GI50 [39] was > 100 µM (inactive). For the same compound, the GI50 [40] was > 100 µM (inactive), the GI50 [41] was > 100 µM (inactive) and the GI50 [42] was > 100 µM (inactive). For the same compound, the GI50 [43] was > 100 µM (inactive), the GI50 [44] was > 100 µM (inactive) and the GI50 [45] was > 100 µM (inactive). The GI50 [46] was > 100 µM (inactive), the GI50 [47] was > 100 µM (inactive) and the GI50 [48] was > 100 µM (inactive). For the same compound, the GI50 [49] was > 100 µM (inactive), the GI50 [50] was > 100 µM (inactive) and the GI50 [51] was > 100 µM (inactive). The GI50 [52] was > 100 µM (inactive), the GI50 [53] was > 100 µM (inactive) and the GI50 [54] was > 100 µM (inactive). The GI50 [55] was 97.1 µM (inactive), the GI50 [56] was > 100 µM (inactive) and the GI50 [57] was > 100 µM (inactive).
